The subject of assay [1] is endogenous AKT. In words: Cellular AKT kinase activity: AKT immunoprecipitated from treated Rh1 cells phosphorylates GSK-3 fusion protein. It counts as cell-based, human. The note with it: 5 μM, 1 hour, IGF-I 10 minutes. As to the method: Determination of cellular AKT kinase activity. AKT kinase activity can be quantitated using a commercial assay kit (available from Cell Signaling Technology, Beverly, Mass.) according to the manufacturer's instructions. Specifically, Rh1 cells are seeded in serum-free medium at a density of 4×10^6 per 10-cm plate. […] Cells are then stimulated with ±IGF-I ([…]) for 10 minutes and washed once with ice-cold PBS. Cells are lysed in 200 μl of ice-cold 1× lysis buffer (20 mM Tris, pH 7.5; 150 mM NaCl; 1 mM EDTA; 1 mM EGTA; 1% Triton X-100; 2.5 mM sodium pyrophosphate; 1 mM β-glycerol phosphate; 1 mM Na3VO4; 1 mM phenylmethylsulfonyl fluoride; and 1 mM leupeptin) and incubated for 10 minutes on ice. The cell lysates are then centrifuged for 10 minutes at 17,500×g at 4° C. Volumes of the supernatants are preferably adjusted so that each sample contains an equal amount of protein (150 μg). The supernatants are then incubated with immobilized (cross-linked) anti-AKT antibody (Cell Signaling Technology, Beverly, Mass., catalog # 9279) for 3 hours at 4° C. […]
To determine directly whether compounds, such as the phenoxazine compounds in Table I, inhibit AKT activation in cells, the activation of AKT by IGF-I can be evaluated by assessing either phosphorylation of AKT (Ser473), or the in vitro kinase activity of protein immunoprecipitated by anti-AKT antibody. […]

For assay [2], the target named is T1, recombinant p-110 gamma enzyme (Homo sapiens, UniProt P48736).
T1 construct: purchased AG Scientific, San Diego, Calif
The assay can be described thus: PI 3-kinase assay in vitro. It counts as biochemical. The note with it: 5 μM; phosphatidylinositol substrate, [γ32P]-ATP, TLC.
Experimental: PI 3-kinase assay. […] 10 μg of phosphatidylinositol (available from Sigma, St. Louis, Mo.) can then be added to each sample, and the incubation preferably continues on ice for an additional 15 minutes. ATP (final concentration 25 μM containing 30 μCi of [γ^32p]-ATP) can be added to each sample, and the reaction mixtures incubated at 37° C. for 10 minutes. Reactions can be terminated by adding 20 μl of 6 N hydrochloric acid. The sample is preferably vortexed, and lipids extracted into 300 μl of MeOH:CHCl3 (1:1) mixture. After mixing gently and spinning at 10,000×g for 5 minutes, 50 μl of the organic phase is preferably spotted onto a silica coated thin layer chromatography (TLC) plate (available from EMD, La Jolla, Calif.) and developed using a solvent system containing CHCl3:MeOH:H2O:NH4OH (60:47:11.3:2). The TLC plate can then be allowed to dry, and the bands analyzed using a Storm 860 phosphoimager (available from Amersham Biosciences, Sunnyvale, Calif.).
Lipids in such assays can be resolved by thin layer chromatography (TLC), and incorporated radiolabel quantitated using a phosphoimager.

From patent publication US20060241108A1, “Substituted phenoxazines and acridones as inhibitors of AKT” (St. Jude Children's Research Hospital, priority 2005, published 2006) come the findings set out here.

T1 sequence (P48736 whole entry, species assumed): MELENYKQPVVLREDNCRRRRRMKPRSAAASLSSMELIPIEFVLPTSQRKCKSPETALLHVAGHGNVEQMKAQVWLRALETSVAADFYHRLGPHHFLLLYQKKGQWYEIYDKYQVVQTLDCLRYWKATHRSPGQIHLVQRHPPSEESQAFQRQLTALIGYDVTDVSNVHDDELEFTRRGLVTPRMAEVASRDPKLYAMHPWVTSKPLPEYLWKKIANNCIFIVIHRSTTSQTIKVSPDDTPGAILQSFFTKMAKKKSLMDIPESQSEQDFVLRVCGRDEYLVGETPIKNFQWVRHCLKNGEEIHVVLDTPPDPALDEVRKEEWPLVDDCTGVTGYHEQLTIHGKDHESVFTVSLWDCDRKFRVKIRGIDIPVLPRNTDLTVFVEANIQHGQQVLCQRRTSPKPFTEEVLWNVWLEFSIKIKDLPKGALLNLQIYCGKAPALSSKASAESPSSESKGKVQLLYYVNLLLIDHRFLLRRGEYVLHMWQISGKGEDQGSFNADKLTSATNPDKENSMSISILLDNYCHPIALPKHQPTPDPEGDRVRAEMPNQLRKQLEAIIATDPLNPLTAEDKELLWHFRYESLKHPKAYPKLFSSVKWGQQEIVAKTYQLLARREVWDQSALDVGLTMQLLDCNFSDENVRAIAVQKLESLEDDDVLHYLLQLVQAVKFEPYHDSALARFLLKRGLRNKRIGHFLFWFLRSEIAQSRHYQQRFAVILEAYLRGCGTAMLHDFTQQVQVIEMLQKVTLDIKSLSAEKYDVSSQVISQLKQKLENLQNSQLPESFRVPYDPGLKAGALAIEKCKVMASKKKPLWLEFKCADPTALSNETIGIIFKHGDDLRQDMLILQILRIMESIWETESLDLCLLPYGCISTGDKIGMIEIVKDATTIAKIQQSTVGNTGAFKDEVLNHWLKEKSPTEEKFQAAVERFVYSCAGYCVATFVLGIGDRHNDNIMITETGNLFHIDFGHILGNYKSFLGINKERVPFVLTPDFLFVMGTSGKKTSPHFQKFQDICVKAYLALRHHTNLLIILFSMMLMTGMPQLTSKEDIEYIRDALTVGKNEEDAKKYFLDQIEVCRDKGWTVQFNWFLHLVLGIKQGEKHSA

Consider “10-[4′-[(β-hydroxyethyl)piperazino]butyl]-2-chlorophenoxazine [Compound 15B]”, for which the “phosphorylation of GSK-3 fusion protein by AKT immunoprecipitated from treated cells” value in assay [1] was “completely inhibited”. Also, the “PI 3-kinase activity” value in assay [2] is given as “comparable to the untreated sample”.

For the molecule `CCN(CC)CCCCN1c2ccccc2Oc2ccc(Cl)cc21` [Compound 10B, 10-[4′-(N-diethylamino)butyl]-2-chlorophenoxazine], in assay [1], the “phosphorylation of GSK-3 fusion protein by AKT immunoprecipitated from treated cells” value is given as “completely inhibited”. Besides, the “PI 3-kinase activity” value in assay [2] is “comparable to the untreated sample”.
